According to patent US8436005B2, “Macrocyclic pyrimidine derivatives” (Abbott Laboratories, priority 2008, dated 2013):

Test system: carrageenan-induced thermal hyperalgesia
Assay: Acute model of carrageenan-induced thermal hyperalgesia (hotbox assay)
Format: in vivo
Conditions: 100 micromole/kg intraperitoneally, 90 minutes after carrageenan, tested 30 minutes after dosing
Method: To assess the effectiveness of representative compounds of the invention against acute model inflammatory pain, animals can be tested in an acute model of carrageenan-induced thermal hyperalgesia (see for example, Honore, et al. Behavioural Brain Research (2006) vol. 167 pp. 355-364; Porreca, et al. Journal of Pharmacology and Experimental Therapeutics (2006) vol. 318 pp. 195-205). Carrageenan is injected into the test paw of the animal, and after 90 minutes, the test drug is administered by intraperitoneal dosing; the effect on thermal hyperalgesia is assessed in a hotbox assay which is done 30 minutes after the intraperitoneal dosing of the test drug. The MPE (maximal percent effect) is reported by comparison to the control paw (not injected with carrageenan), MPE being expressed as 100 times the withdrawal latency of the carrageenan injected paw (in seconds) divided by the withdrawal latency of the control (not injected with carrageenan) paw.

Row | Structure (SMILES) | MPE (maximal percent effect), withdrawal latency of carrageenan injected paw vs control paw [%]
1 | Nc1nc2c(c(N3CCNCC3)n1)CCCCC2c1ccccc1 (centres unmarked) [Example 19, 9-phenyl-4-(piperazin-1-yl)-6,7,8,9-tetrahydro-5H-cyclohepta[d]pyrimidin-2-amine] | 26
2 | Nc1nc2c(c(N3C[C@H]4CCCN[C@H]4C3)n1)CCCCC2c1ccccc1 (stereo partly drawn) [Example 21, 9-phenyl-4-((4aR,7aR)-tetrahydro-1H-pyrrolo[3,4-b]pyridin-6(2H,7H,7aH)-yl)-6,7,8,9-tetrahydro-5H-cyclohepta[d]pyrimidin-2-amine] | 24
